Results as given in US20240247031A1, “COMPOSITION FOR TREATING CANCER CONTAINING TELOMERASE-TARGETING GNRH ANTAGONIST-DERIVED PEPTIDE HS1002” (Research & Business Foundation Sungkyunkwan University, priority 2023, published 2024).

Experiments:
LNCaP = test: cells; type: cell-based, human; details: human, 48 h
Protocol: (§1) To evaluate anticancer activities of the produced peptides on various types of cancer cells, MTT analysis was performed. Human prostate cancer cell lines (LNCaP, PC3, and DU145), human breast cancer cell lines (MDA-MB-231 and MCF-7), lung cancer cell line (A549), and ovarian cancer cell line (SKOV3) were cultured in RPMI media supplemented with 1% penicillin/streptomycin and 1% fetal bovine serum (all from Life Technologies, Grand Island, NY). The cells were seeded in 96-well plates containing 100 μL of growth media for 24 h. The media were removed, and then 100 μL of the peptide (solvent DPBS) at each concentration was added to each well and incubated at 37° C. for 48 h. After incubation for 48 h, 100 μL of MTT reagent was added to each well. The cells were incubated at 37° C. for 4 h, and then the supernatant was removed. Formazan crystals were dissolved in 100 μL of DMSO with gentle stirring at 37° C. for 10 min. The absorbance per well was measured at 540 nm using a VERSA max microplate reader (Molecular Devices Corp.).

MCF-7 = test: cells; type: cell-based, human; details: human, 48 h
Protocol: as §1

serum testosterone = test: Serum testosterone level and seminal vesicle weight after repeated injection (FIG. 15); type: in vivo, mouse; details: male BALB/c mice
Protocol: 6-week-old male BALB/c mice (Jung Ang Lab Animal Inc., Seoul, South Korea) were subcutaneously injected with vehicle or 1 mg/kg/day HS1002 for 10 days. Blood samples were collected 5 h after initial injection and 5 h after last injection. The serum concentration of testosterone was determined using a testosterone ELISA kit (ALPCO Diagnostics, Salem, NH, USA).
GnRH agonists stimulate the release of LH and FSH by binding to GnRHR located on the pituitary gonadotropes and consequently stimulate the secretion of steroid hormone from the gonads. However, continuous exposure to the GnRH agonist results in the downregulation of desensitization of GnRHR and eventually decreases production of testosterone. The inhibitory effect on the pituitary gonadal axis has a role in the anti-prostate cancer effects of GnRH analogs. Based on the HS1002 peptide design strategy, to validate whether HS1002 functions as a GnRHR ligand, the serum testosterone level in male mice was tested after repeated subcutaneous injections of HS1002.

[1] = test system: BAX, C-PARP, Bcl-2 in LNCaP; test: Western blot of proteins involved in apoptosis (FIG. 9); type: cell-based, human; details: different concentrations, 48 h
Protocol: The prostate cancer cell line (LNCaP) was seeded into six-well plates and then incubated in an incubator for one day. The peptides were diluted in fresh media and then used to treat the cells. After 48 h, the media were removed, the plates were washed twice with DPBS, and 1 mL of trypsin was placed in each well to separate the cells, and 5 mL of media were added to each well to dilute the trypsin, followed by centrifugation at 1000 rpm for 5 min, thereby preparing the cells. Thereafter, proteins were extracted using a Pro-prep protein extraction kit, separated by electrophoresis, and blotted onto a membrane. The membrane was blocked by a Blotting-Grade Blocker at room temperature for 1 hour, and then primary antibodies (1000:1) were added, followed by incubation at 4° C. for one day. Thereafter, the membrane was repeatedly washed with 1×TBST (Tris 25 g, NaCl 120 g in D.W.+[…] 0.1%) every 10 min for 1 h. Then, secondary antibodies (10000:1) were added, followed by incubation at room temperature for 1 h, and then the membrane was repeatedly washed with 1×TBST every 10 min for 1 h. After incubation with […] substrates for 5 min, desired protein bands were identified using a Chemi-doc system.

HEK293-GnRHR cells = biological target: T1, HEK293-GnRHR cells (Homo sapiens, UniProt P30968); test: CRE-luciferase reporter assay; type: cell-based
T1 construct: GFP; expressed in transfected cells
T1 sequence (P30968 1-328): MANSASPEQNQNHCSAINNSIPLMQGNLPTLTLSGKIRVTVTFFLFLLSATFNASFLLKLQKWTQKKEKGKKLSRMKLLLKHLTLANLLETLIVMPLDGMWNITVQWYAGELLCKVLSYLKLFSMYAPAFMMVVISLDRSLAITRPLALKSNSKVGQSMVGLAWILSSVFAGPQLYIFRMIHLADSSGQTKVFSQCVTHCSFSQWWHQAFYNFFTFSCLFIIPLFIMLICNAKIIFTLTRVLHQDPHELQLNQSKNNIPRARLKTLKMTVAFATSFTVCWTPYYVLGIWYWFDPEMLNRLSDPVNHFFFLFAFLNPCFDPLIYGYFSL
Protocol: (§2) Human embryonic kidney cell line (HEK293), and mouse cancer cell lines (MC38, 4T1) were purchased from the American Type Culture Collection (Manassas, VA, USA). All cell lines were grown in Dulbecco's Modified Essential Medium (DMEM) or Roswell Park Memorial Institute (RPMI) 1640 supplemented with 10% FBS, 100 U/mL penicillin, and 100 μg/mL streptomycin (WelGENE, Daegu, South Korea) in a humidified atmosphere of 5% CO2 at 37° C. To obtain GnRHR-overexpressing HEK293 (HEK293-GnRHR) cells, transfection of the pCMV-AC-GFP-GnRHR vector (HEK293-GnRHR) was performed using Lipofectamine™ 3000 according to the manufacturer's instructions (Cat. 100022052, Thermo Fisher Scientific, Waltham, MA, USA). Colonies of geneticin-resistant cells were selected by adding G418 (800 μg/mL, Sigma) to the culture medium. The HEK293-pCMV-AC-GFP vector (HEK293-Vector) cells were used as a mock-transfection group.
The HEK293-pCMV6-AC-GFP and HEK293-GnRHR cells (4×10^4 cells/well) were grown in 96-well plates and co-transfected with a luciferase reporter plasmid containing a cAMP response element (CRE) using Lipofectamine 3000 (Life Technologies). The transfected cells were exposed to different concentrations of peptide for 24 h, and the promoter activity was measured by a dual-luciferase reporter assay system (BPS Bioscience). The firefly and Renilla luciferase activities were measured using a microplate luminometer (Thermo, Varioskan LUX Multimode Microplate Reader). The calculation of relative luciferase activities involved the normalization of the firefly luciferase activity […].

HEK293-Vector cells = test: Intracellular calcium flux assay, mock-transfected cells; type: cell-based, human; details: 1 and 10 nM
Protocol: as §2
Intracellular calcium mobilization was measured using the Calcium Flux Assay Kit (Cat. ab233472, abcam) in response to different concentrations of each peptide. The percentage increase was calculated relative to basal fluorescence intensity. The experiment was performed in triplicate.

CCNC(=O)[C@@H]1CCCN1C(=O)[C@@H](NC(=O)[C@H](Cc1ccccc1)NC(=O)[C@H](CCCNC(=N)N)NC(=O)[C@H](CC(C)C)NC(=O)[C@H](CCCNC(=N)N)NC(=O)[C@H](Cc1ccc(O)cc1)NC(=O)[C@H](CO)NC(=O)[C@H](Cc1c[nH]c2ccccc12)NC(=O)[C@H](Cc1c[nH]cn1)NC(=O)[C@@H]1CCC(=O)N1)[C@@H](C)CC [HS1002]
Cytotoxicity (IC50) LNCaP (LNCaP): 6.83 ± 0.72 µg/mL
Cytotoxicity (IC50) MCF-7 (MCF-7): 53.31 ± 1.79 µg/mL
serum testosterone level increase compared to the vehicle-injected group (serum testosterone; 1 mg/kg s.c., 5 h after the 1st injection): 2.37 fold
seminal vesicle weights (serum testosterone; 1 mg/kg/day s.c., 10 days, vs vehicle): significantly reduced
serum testosterone level (serum testosterone; 1 mg/kg/day s.c., at 10 days after repeated injection, vs vehicle): significantly lower
expression level of BAX [1]: increased
expression level of Bcl-2 [1]: decreased
expression level of C-PARP [1]: increased
CRE-luciferase activity compared to the control (HEK293-GnRHR cells; 10 μM): 2 fold
cAMP-mediated promoter binding activity (CRE-luciferase), concentration dependence (HEK293-GnRHR cells; 24 h): concentration-dependently enhanced
calcium flux (HEK293-Vector cells): increased calcium flux
